Laboratory results taken from patent publication US9283261B2, “Linaclotide compositions” (Forest Laboratories Holdings Ltd., priority 2012, dated 2016).
Bridge positions count the residues as written; N and C are the ends. Peptide text beside a SMILES is read from it.

Assays:
[1] = stability of linaclotide compositions with formaldehyde scavenger compounds, Cys1-IMD by RP-HPLC; format: physicochemical; conditions: 40° C., 75% relative humidity; for % Cys1-IMD after storage 4 Weeks / % Cys1-IMD after storage 8 Weeks / % Cys1-IMD after storage 13 Week: percent of chromatogram area, labeled canister (formaldehyde stressor); for % decrease in Cys1-IMD as compared to negative control (after 13 weeks) / % Cys1-IMD after storage 13 Week: 13 weeks
Method: 60 cc square HPDE bottle (with 33 mm caps with induction seals) were loaded with (i) capsules containing beads coated with 145 μg or 290 μg of linaclotide, a binder, calcium chloride and leucine with an approximate molar ratio of CaCl2:leucine:linaclotide of 60:30:1, (ii) either no formaldehyde scavenger compound (negative control) or a canister comprising one of the formaldehyde scavenger compounds disclosed in Table 3, and (iii) optionally a canister containing 3 grams of a silica gel desiccant.
In addition, some of the linaclotide compositions contained a formaldehyde stressor (in particular, an adhesive label on the desiccant canister that was applied by the manufacturer of the desiccant canister (Sud Chemie) (its presence in some linaclotide compositions is indicated in the table as “labeled canister”). Regarding the formaldehyde stressor canister, it was observed by applicants that the canister emits about 27.5 ug of formaldehyde in 24 hours at 60° C.
The linaclotide compositions were stored in a 40° C., 75% relative humidity stability chamber. Next, the quantity of Cys1-IMD in each linaclotide composition was determined following 4, 8 and 13 week storage via Reverse Phase-HPLC using a gradient elution with UV detection at 220 nm. Quantitation was based on percent of chromatogram area.
Test samples of linaclotide capsules are prepared by emptying the bead contents into flasks, adding diluent and shaking for 30 minutes. The analysis used the bead contents of a composite of 6 or 8 capsules (for 290 μg and 145 μg, respectively). Operating conditions for the analytical test method by HPLC are outlined in Table 2.

[2] = test system: adult patients with IBS-C; test: double-blind placebo-controlled studies in IBS-C (Study 1 and Study 2); format: in vivo, human; conditions: 290 mcg discontinued
Method: In this regard, the efficacy of oral dosage forms comprising […] for the management of IBS-C was established in two double-blind, placebo-controlled, randomized, multicenter studies in adult patients. A total of 800 patients in Study 1 and 804 patients in Study 2 (overall mean age of 43.9 years [range 18-87 years with 5.3% ≧65 years of age], 90.1% female, 77.4% white, 18.8% black, and 12.0% Hispanic) received treatment with LINZESS 290 mcg or placebo once daily and were evaluated for efficacy. All patients met Rome II criteria for IBS and were required to report a mean abdominal pain score of ≧3 on a 0-to-10-point numeric rating scale, <3 complete spontaneous bowel movements (CSBMs; a CSBM is a spontaneous bowel movement [SBM] that is associated with a sense of complete evacuation; an SBM is a bowel movement occurring in the absence of laxative use), and ≦5 SBMs per week during a 2-week baseline period. The study designs were identical through the first 12 weeks, and thereafter differed only in that Study 1 included a 4-week randomized withdrawal (RW) period, and Study 2 continued for 14 additional weeks (total of 26 weeks) of double-blinded treatment.
Efficacy of the oral dosage form of linaclotide was assessed using responder and change-from-baseline endpoints. Results for endpoints were based on information provided daily by patients. […]

Compound | % Cys1-IMD after storage 4 Weeks [1] | % Cys1-IMD after storage 8 Weeks [1] | % decrease in Cys1-IMD as compared to negative control (after 13 weeks) [1] | % Cys1-IMD after storage 13 Week [1] | rebound of bowel symptoms after discontinuation (4-week RW period) [2]
NCCCC[C@H](N)C(=O)O [lysine] | 0.87% | 1.27% | −47% | 1.87% | 
CC(C)C[C@H](N)C(=O)O [leucine] | 0.84% | 1.26% | −31% | 2.44% | 
NCC(=O)NCC(=O)O [glycine-glycine] (H-Gly-Gly-OH) | 0.89% | 1.40% | −44% | 1.98% | 
N[C@@H](Cc1c[nH]cn1)C(=O)O [histidine] | 0.60% | 0.68% | −72% | 1.00% | 
C[C@@H]1NC(=O)[C@@H]2CCCN2C(=O)[C@H](CC(N)=O)NC(=O)[C@@H]2CSSC[C@H](N)C(=O)N[C@H]3CSSC[C@H](NC1=O)C(=O)N[C@@H]([C@@H](C)O)C(=O)NCC(=O)N[C@H](C(=O)N[C@@H](Cc1ccc(O)cc1)C(=O)O)CSSC[C@H](NC(=O)[C@H](Cc1ccc(O)cc1)NC(=O)[C@H](CCC(=O)O)NC3=O)C(=O)N2 [linaclotide] (H-CCEYCCNPACTGCY-OH; disulfide 1-6, 2-10, 5-13 (inferred); N-terminus and C-terminus assumed) |  |  |  |  | no evidence of rebound worsening

Second part, led by results:

% Cys1-IMD after storage 4 Weeks [1] | % Cys1-IMD after storage 8 Weeks [1] | % decrease in Cys1-IMD as compared to negative control (after 13 weeks) [1] | % Cys1-IMD after storage 13 Week [1] | Compound | rebound of bowel symptoms after discontinuation (4-week RW period) [2]
0.59% | 0.81% | −76% | 0.84% | CNC[C@H](O)[C@@H](O)[C@H](O)[C@H](O)CO [d-meglumine] | 
0.52% | 0.78% | −61% | 1.36% | CC(C)C[C@H](N)C(=O)O [lyophilized leucine, leucine] | 
0.56% | 1.11% | −59% | 1.45% | NC(=O)C[C@H](N)C(=O)O [asparagine] | 
0.82% | 1.54% | −27% | 2.58% | COC(=O)[C@H](Cc1ccccc1)NC(=O)[C@@H](N)CC(=O)O [aspartame] (H-Asp-Phe-OMe) | 
